From patent publication US7981863B2, “Treatment of Parkinson's disease with PDGF” (Neuronova AB, priority 2001, dated 2011)

Assays:
[1] = system: rat neural stem cells from the adult lateral ventricle wall; experiment: Expansion of rat neural stem cell cultures, total cell counts at 7 days; format: cell-based; conditions: for block of the VEGF response / growth of neural stem cell cultures: total cell counts at 7 days; for growth of neural stem cell cultures: growth conditions (EGF and FGF-2), no recombinant VEGF, FIG. 30
Procedure: Neural stem cells were prepared according to the attached protocol. Cells were grown in serum-free medium, subcloned and used between passage 6 and 10. If not otherwise mentioned the experiments consisted of triplets for analysis and were independently repeated at least 3 times.
Basal Medium: Neurobasal medium (NB, Gibco BRL) & B27 supplement (Gibco BRL).
Growth Medium: NB, B27 supplement+20 ng/ml of FGF-2 (R&D Systems)+20 ng/ml EGF (R&D Systems)+2 μg/ml heparin (Sigma, Germany).
Cells were plated in Growth medium at 10.000 cells/ml and after 2 days switched to the experimental condition. Cells were kept under the experimental condition for 7 days.
Adult female Fischer-344 rats (3-4 months; Charles River, Germany) were killed via cervical dislocation, the brains of each rat were removed and stored at 4° C. in DPBS (PAN, Germany) with 4.5 g/L glucose (Merck, Germany) (DPBS/glu). Overlying meninges and blood vessels were removed. Ependymal zone including subependymal/subventricular zone form the lateral wall of the lateral ventricle were aseptically removed. The dissected tissue was transferred to fresh DPBS/glu, washed once, transferred to petri-dishes and dissociated mechanically into a single cell suspension. The cell suspension was washed in DPBS/glu in order to rinse off excess blood and resuspended in PPD-solution containing 0.01% Papain (Worthington Biochemicals, England), 0.1% dispase II (Boehringer, Germany), 0.01% DNase I (Worthington Biochemicals, England) and 12.4 mM MgSO4 in HBSS (PAN, Germany) without Mg^++/Ca^++ (PAA, Germany) and digested for 30 to 40 min at room temperature. The cell solution was triturated every 10 min. Dissociated cells were collected and resuspended in serum-free DMEM/F12 medium containing 2 mM L-glutamine and 0.1 g/L penicillin/streptomycin and washed three times with accurate trituration with a blue tip. Finally the single cell suspension was resuspended in Neurobasal medium (Gibco BRL, Germany) supplemented with B27 (Gibco BRL, Germany) (NB/B27), 2 mM L-glutamine (PAN, Germany), 0.1 g/L penicillin/streptomycin (PAN, Germany), 2 μg/ml heparin (Sigma, Germany), 20 ng/ml bFGF-2 (R&D Systems, Germany) and 20 ng/ml EGF (R&D Systems, Germany). Live cells were counted by trypan blue exclusion assay in a hemocytometer. Cells were seeded in T-25 culture flasks and cultures were maintained at 37° C. in an incubator with 95% air, 5% CO2. Single cells began to form spheres within 5 to 7 days of suspension culture and continued to grow in mass and number over the next weeks. Media were changed every 7 days.
The culture medium containing floating neurospheres was collected in a 15 ml centrifuge tube and centrifuged at 800 rpm. The pellet was resuspended in 200 μl of Accutase (Innovative Cell Technologies Inc., USA, distributed by PAA, Germany) and triturated about 10 times using a pipette. Then, the cell suspension was incubated at 37° C. for 10 min. Dissociated spheres were again triturated and resuspended in 800 μl of NB/B27 medium. An aliquot was counted by trypan blue exclusion assay in a hemocytometer to determine the amount of live and dead cells. 1×10^5 cells were plated in T75 culture flasks for long term passaging (10 ml of culture medium per flask) in NB/B27 medium. The cells obtained after Accutase-treatment of primary neurospheres proliferated and yielded secondary neurospheres. Secondary neurospheres were passaged 7 to 9 days after plating primary neurosphere cells. Similar to primary cultures and primary neurospheres, single cells obtained after dissociation of secondary neurospheres proliferated and yielded tertiary neurospheres. […]

Flk-1 = conditions: Calbiochem product data; cited from earlier work
[2] = system: cultured, non-adherent mouse neurospheres; experiment: Intracellular ATP assay, proliferation of cultured mouse neurospheres; format: cell-based; conditions: FIG. 1
Procedure: The anterior lateral wall of the lateral ventricle of 5-6 week old mice was enzymatically dissociated in 0.8 mg/ml hyaluronidase and 0.5 mg/ml trypsin in DMEM containing 4.5 mg/ml glucose and 80 units/ml DNase at 37° C. for 20 min. The cells were gently triturated and mixed with three volumes of Neurosphere medium (DMEM/F12, B27 supplement, 125 mM HEPES pH 7.4) containing 20 ng/ml EGF (unless otherwise stated), 100 units/ml penicillin and 100 μg/ml streptomycin. After passing through a 70 μm strainer, the cells were pelleted at 160×g for 5 min. The supernatant was subsequently removed and the cells resuspended in Neurosphere medium supplemented as above, plated out in culture dishes and incubated at 37° C. Neurospheres were ready to be split approximately 7 days after plating.
To split the neurospheres, cells were collected by centrifugation at 160×g for 5 min. The conditioned supernatant (conditioned medium) was removed and saved. The neurospheres were resuspended in 0.5 ml Trypsin/EDTA in HBSS (1×), incubated at 37° C. for 2 min and triturated gently to aid dissociation. Following a further 3 min incubation at 37° C. and trituration, 3 volumes of ice cold Neurosphere medium medium w/o EGF were added to stop further trypsin activity. […]
After 3 days of treatment, intracelluar ATP was measured using the ATP SL kit (Biothema) according to the manufacturer's instructions.

[3] = system: Mouse Cultured Neural Stemcells/Progenitors; experiment: GFAP and β-III Tubulin in adherent mouse neural stem cells (Western blot, immunocytochemistry); format: cell-based
Procedure: NSCs, cultured as described above, were seeded from passage 2 into DMEM/F12 supplemented with B27 into a 24-well plate (poly-D-lysine-coated) as single cells (70.000 cells/well), to which PDGF-AA was added at the concentration of 1 nM. The cells were then differentiated for 5 days changing medium plus/minus PDGF-AA every 48 hours. At day 6 the cells were harvested and Western blots were performed as described elsewhere (Patrone C et al (1999) Proc Natl Acad Sci USA. 96(19):10905-10). A neuronal marker antibody against β-III Tubulin, 1:5000 (BioSite), or a glial marker antibody against glial fibrillary acidic protein (GFAP) 1:5000, (DAKO) was used to measure phenotypic fates.
In another set of experiments the effects of PDGF-AA were studied with immunocytochemical methods in fixed adherently cultured neural stem cells. […] In other experiments with PDGF-AA, analyzed by immunocytochemistry, it was shown that the factor caused a general shift from a stem cell phenotype to a progenitor phenotype in that cultures contained both of the markers, GFAP and β-III Tubulin. […] In concurrent experiments the effect of PDGF-BB was also studied.

Mouse Neural Stem Cells = experiment: Neuronal differentiation (β-III Tubulin) of adult mouse neural stem cells; format: cell-based; conditions: 1 nM, 7 days
Procedure: Adult mouse neurosperes were dissociated with trypsin (Gibco) into single cells and transferred to poly-D-Lysine plates (BD) in the above culture medium, without growth factors, supplemented with 1% Fetal Calf Serum (Gibco). The cells were incubated over night to adhere to the plate. The medium was changed to culture medium, without growth factors, supplemented with 1 nM PDGF-AA or PDFG-BB (both from R&D Systems). The medium with new substance added every second day. The cells were incubated for a total of 7 days.
The cells were washed two times with PBS (Gibco) and fixed for 15 min RT with 4% Formaldehyde (Sigma) and permeabilized 20 min RT in 0.1% Triton X-100 (Sigma) in PBS. After fixation and permeabilization the cells were labelled with mouse monoclonal anti-β-III Tubulin (1:500 Promega). Primary antibody was visualized with anti mouse Texas-Red (1:100 Vector Laboratories). All antibodies were diluted in PBS with 0.1% Triton X-100.
The cells were washed twice with PBS (Gibco) and lysed with 200 ul lysis buffer/well. The lysis buffer contained PBS, 0.1% Triton X-100, 1 mM EDTA and 1 tab1. Protease inhibitor cocktail (Roche). The samples were run on a 4-12% Bis-Tris gel (Novex) under reduced conditions with MOPS buffer (Novex) and blotted onto a Hybond ECL nitrocellulose membrane (Amersham Biotech). Blocked in 5% ECL-Block (Amersham Biotech) in PBS+0.1% Tween 20 (Sigma). The membranes were labelled with mouse monoclonal anti-β-III Tubulin (1:5000 Promega). The primary antibody was detected using a secondary antibody anti-mouse-HRP (1:10000 Amersham Biotech) and ECL Plus+ Western Blot Detection Kit (Amersham Biotech). All antibodies were diluted in PBS with 0.1% Triton X-100, 1% ECL Block. The signal were then captured on ECL Hyper Film (Amersham Biotech)

[4] = system: cells from the lateral ventricle wall; conditions: after intraventricular infusion, compared to aCSF controls; FIG. 33
[5] = system: Neural stem cell cultures; conditions: 50 ng/ml VEGF, 100 nM PADQ or 700 nM SU1498 for 7 days
Procedure: BrdU (10 μM) was added to the culture medium 24 hrs before cells were harvested and lysed. DNA was extracted and BrdU content was determined using an anti-BrdU-ELISA. The data are presented as percent changes in optical density compared to control (Growth medium).

adult rats = conditions: four weeks after 7 days of continuous VEGF infusion into the lateral ventricle
[6] = basal medium, VEGF 50 ng/ml, PADQ 100 nM, SU1498 700 nM
[7] = growth conditions (including EGF and FGF-2)
[8] = 1 nM, 6 days, adherent culture, compared to treatment with EGF
[9] = fixed adherently cultured neural stem cells

In the case of `CC(C)c1cc(/C=C(\C#N)C(=O)NCCCc2ccccc2)cc(C(C)C)c1O` [SU1498, (E)-3-(3,5-Diisopropyl-4-hydroxyphenyl)-2-[(3-phenyl-n-propyl)amino-carbonyl]acrylonitrile], the “block of the VEGF response” value [1, 6] is reported as “able to block the VEGF response”, the “growth of neural stem cell cultures” value [1] is reported as “significantly reduce the growth” and the “block of the VEGF response” value [1, 7] is reported as “able to block the VEGF response”. The IC50 (Flk-1) was 700 nM.
In the case of “PDGF-AA: human recombinant PDGF-AA, platelet derived growth factor A-chain homodimer”, the “effect on the proliferative effect of PDGF-BB when added together” value ([2]; PDGF-AA added together with PDGF-BB, B27 medium) is reported as “did not alter the proliferative effect of PDGF-BB”, the “proliferative effect (intracellular ATP)” value ([2]; growth media supplemented with B27, 1 nM-0.0005 nM, 3 days of treatment) is reported as “weaker compared to BB” and the “GFAP (Western blot)” value [3, 8] is reported as “downregulation of GFAP”. For the same compound, the “β-III Tubulin neuronal marker (Western blot)” value [3, 8] was “significant increase”, the “GFAP (immunocytochemistry)” value [3, 9] was “down regulation of GFAP” and the “β-III Tubulin (immunocytochemistry)” value [3, 9] was “upregulation of β-III Tubulin”. For the same compound, the “number of β-III Tubulin positive cells in culture” value (Mouse Neural Stem Cells; compared to the control, FIG. 5) was “significantly increase the number of β-III Tubulin positive cells”, the “levels of β-III Tubulin protein (Western blot)” value (Mouse Neural Stem Cells; compared with the control, FIG. 6) was “significantly increased levels of β-III Tubulin protein” and the “neuronal differentiation of cultured mouse neural stem cells/progenitors” value (Mouse Neural Stem Cells; FIG. 5 and FIG. 6) was “trigger neuronal differentiation”.
With VEGF the “number of spheres formed in culture from lateral ventricle wall cells” value [4] was “significantly increased”, the “BrdU incorporation (proliferation ELISA)” value [5] was “more BrdU” and the “DNA strand breaks (apoptosis ELISA)” value [5] was “reduced the amount of DNA strand breaks”. The “stimulation of proliferation of neural stem cell cultures” value ([1]; different concentrations, 7 days, FIG. 24, FIG. 25) was “dose-dependent stimulatory effect”, the “ED50 (expansion of neural stem cell cultures)” value ([1]; growth medium, 7 days, FIG. 27) was roughly 0.01 µg/mL and the “concentration of maximal stimulation” value ([1]; growth medium, 7 days, FIG. 27) was 50 ng/mL. The “BrdU labeled cells in the dentate gyrus” value (adult rats) was “marked increase”.
In the case of `COc1cc2ncnc(Nc3ccc(Cl)cc3F)c2cc1OC` [PADQ], the “block of the VEGF response” value [1, 6] is reported as “able to block the VEGF response”, the “growth of neural stem cell cultures” value [1] is reported as “significantly reduce the growth” and the “block of the VEGF response” value [1, 7] is reported as “able to block the VEGF response”. The IC50 (Flk-1) was 100 nM.
